The record followed here is ChEMBL document CHEMBL1148851, “Chemoenzymatic synthesis and in vitro studies on the hydrolysis of antimicrobial monoglycosyl diglycerides by pancreatic lipase” (2007).

≈ marks a conversion by molar mass, not a printed value.

The test system of one test is Mycobacterium tuberculosis. Kind of test: Antibacterial activity against Mycobacterium tuberculosis H190 by dilution method. In kind it is functional.
Conditions: not given
Take `CCCCCCCC/C=C\CCCCCCCC(=O)OC(COC(=O)CCCCCCCCC)CO[C@@H]1O[C@H](CO)[C@@H](O)[C@H](O)[C@H]1O` (some centres not stated): the MIC was greater than 128 µg/mL.
On the same count and under the same terms, next, `CCCCC/C=C\C/C=C\CCCCCCCC(=O)OC(COC(=O)CCCCCCCCC)CO[C@@H]1O[C@H](CO)[C@@H](O)[C@H](O)[C@H]1O` (some centres not stated): greater than 128 µg/mL.
Still for that read-out and setting: next, `CCCCCCCC/C=C\CCCCCCCC(=O)OC(COC(=O)CCCCCCC)CO[C@@H]1O[C@H](CO)[C@H](O)[C@H](O)[C@H]1O` (some centres not stated): 64 µg/mL (≈ 99.2 µM).

The test system of another test is Candida albicans. Briefly: Antifungal activity against Candida albicans by dilution method.
Conditions: not given
In kind it is functional.
Consider `CCCCCCCC/C=C\CCCCCCCC(=O)OC(COC(=O)CCCCCCCCC)CO[C@@H]1O[C@H](CO)[C@@H](O)[C@H](O)[C@H]1O` (some centres not stated), for which the MIC is greater than 128 µg/mL.
Consider `CCCCC/C=C\C/C=C\CCCCCCCC(=O)OC(COC(=O)CCCCCCCCC)CO[C@@H]1O[C@H](CO)[C@@H](O)[C@H](O)[C@H]1O` (some centres not stated), for which the MIC was greater than 128 µg/mL.
On the same count and under the same terms, under `CCCCCCCC/C=C\CCCCCCCC(=O)OC(COC(=O)CCCCCCC)CO[C@@H]1O[C@H](CO)[C@H](O)[C@H](O)[C@H]1O` (some centres not stated) stands greater than 128 µg/mL.

The test system of the next test is Staphylococcus aureus. Briefly: Antibacterial activity against Staphylococcus aureus SA87 isolate. In kind it is functional. The note with it: Staphylococcus aureus; read-out: MIC.
On to `CCCCCCCC/C=C\CCCCCCCC(=O)OC(COC(=O)CCCCCCCCC)CO[C@@H]1O[C@H](CO)[C@@H](O)[C@H](O)[C@H]1O` (some centres not stated), for which the MIC was greater than 128 µg/mL.
Still for that read-out and setting: under `CCCCC/C=C\C/C=C\CCCCCCCC(=O)OC(COC(=O)CCCCCCCCC)CO[C@@H]1O[C@H](CO)[C@@H](O)[C@H](O)[C@H]1O` (some centres not stated) stands 32 µg/mL (≈ 47.7 µM).
Same read-out and setting: under `CCCCCCCC/C=C\CCCCCCCC(=O)OC(COC(=O)CCCCCCC)CO[C@@H]1O[C@H](CO)[C@H](O)[C@H](O)[C@H]1O` (some centres not stated) stands 64 µg/mL (≈ 99.2 µM).

For another test, the system named is Kluyveromyces marxianus. Kind of test: Antifungal activity against Candida pseudotropicalis by dilution method. In kind it is functional.
Conditions: not given
On to `CCCCCCCC/C=C\CCCCCCCC(=O)OC(COC(=O)CCCCCCCCC)CO[C@@H]1O[C@H](CO)[C@@H](O)[C@H](O)[C@H]1O` (some centres not stated), for which the MIC was greater than 128 µg/mL.
On the same count and under the same terms, under `CCCCC/C=C\C/C=C\CCCCCCCC(=O)OC(COC(=O)CCCCCCCCC)CO[C@@H]1O[C@H](CO)[C@@H](O)[C@H](O)[C@H]1O` (some centres not stated) stands greater than 128 µg/mL.
On the same count and under the same terms, under `CCCCCCCC/C=C\CCCCCCCC(=O)OC(COC(=O)CCCCCCC)CO[C@@H]1O[C@H](CO)[C@H](O)[C@H](O)[C@H]1O` (some centres not stated) stands greater than 128 µg/mL.

Another test deals with Staphylococcus aureus. Kind of test: Antibacterial activity against Staphylococcus aureus ATCC 105487. In kind it is functional.
Conditions: not given
`CCCCCCCC/C=C\CCCCCCCC(=O)OC(COC(=O)CCCCCCCCC)CO[C@@H]1O[C@H](CO)[C@@H](O)[C@H](O)[C@H]1O` (some centres not stated): the MIC was greater than 128 µg/mL.
On the same count and under the same terms, next, `CCCCC/C=C\C/C=C\CCCCCCCC(=O)OC(COC(=O)CCCCCCCCC)CO[C@@H]1O[C@H](CO)[C@@H](O)[C@H](O)[C@H]1O` (some centres not stated): 32 µg/mL (≈ 47.7 µM); `CCCCCCCC/C=C\CCCCCCCC(=O)OC(COC(=O)CCCCCCC)CO[C@@H]1O[C@H](CO)[C@H](O)[C@H](O)[C@H]1O` (some centres not stated): greater than 128 µg/mL.

The subject of another test is Staphylococcus aureus. Briefly: Antibacterial activity against Staphylococcus aureus ATCC 25923.
Conditions: not given
In kind it is functional.
`CCCCCCCC/C=C\CCCCCCCC(=O)OC(COC(=O)CCCCCCCCC)CO[C@@H]1O[C@H](CO)[C@@H](O)[C@H](O)[C@H]1O` (some centres not stated): the lowest concentration to inhibit growth (MIC) was 8 µg/mL (≈ 11.9 µM).
The same measure, in the same setting: next, `CCCCC/C=C\C/C=C\CCCCCCCC(=O)OC(COC(=O)CCCCCCCCC)CO[C@@H]1O[C@H](CO)[C@@H](O)[C@H](O)[C@H]1O` (some centres not stated): greater than 128 µg/mL; `CCCCCCCC/C=C\CCCCCCCC(=O)OC(COC(=O)CCCCCCC)CO[C@@H]1O[C@H](CO)[C@H](O)[C@H](O)[C@H]1O` (some centres not stated): greater than 128 µg/mL.

Another test concerns Mycobacterium tuberculosis. Briefly: Antibacterial activity against Mycobacterium tuberculosis H37Rv by dilution method. In kind it is functional. The note with it: Mycobacterium tuberculosis, H37Rv; read-out: MIC.
As to `CCCCCCCC/C=C\CCCCCCCC(=O)OC(COC(=O)CCCCCCCCC)CO[C@@H]1O[C@H](CO)[C@@H](O)[C@H](O)[C@H]1O` (some centres not stated), the MIC was greater than 128 µg/mL.
The same measure, in the same setting: under `CCCCC/C=C\C/C=C\CCCCCCCC(=O)OC(COC(=O)CCCCCCCCC)CO[C@@H]1O[C@H](CO)[C@@H](O)[C@H](O)[C@H]1O` (some centres not stated) stands greater than 128 µg/mL; under `CCCCCCCC/C=C\CCCCCCCC(=O)OC(COC(=O)CCCCCCC)CO[C@@H]1O[C@H](CO)[C@H](O)[C@H](O)[C@H]1O` (some centres not stated), 128 µg/mL (≈ 198 µM).

Another test relates to Enterococcus faecalis. Kind of test: Antibacterial activity against Enterococcus faecalis ATCC 29212. In kind it is functional.
Conditions: not given
In the case of `CCCCCCCC/C=C\CCCCCCCC(=O)OC(COC(=O)CCCCCCCCC)CO[C@@H]1O[C@H](CO)[C@@H](O)[C@H](O)[C@H]1O` (some centres not stated), the MIC was greater than 128 µg/mL.
Same read-out and setting: next, `CCCCC/C=C\C/C=C\CCCCCCCC(=O)OC(COC(=O)CCCCCCCCC)CO[C@@H]1O[C@H](CO)[C@@H](O)[C@H](O)[C@H]1O` (some centres not stated): 64 µg/mL (≈ 95.4 µM).
As for `CCCCCCCC/C=C\CCCCCCCC(=O)OC(COC(=O)CCCCCCC)CO[C@@H]1O[C@H](CO)[C@H](O)[C@H](O)[C@H]1O` (some centres not stated), the MIC was greater than 128 µg/mL.

Another test relates to Pseudomonas aeruginosa. Briefly: Antibacterial activity against Pseudomonas aeruginosa ATCC 27753. In kind it is functional.
Conditions: not given
With `CCCCCCCC/C=C\CCCCCCCC(=O)OC(COC(=O)CCCCCCCCC)CO[C@@H]1O[C@H](CO)[C@@H](O)[C@H](O)[C@H]1O` (some centres not stated), the MIC is greater than 128 µg/mL.
In the case of `CCCCC/C=C\C/C=C\CCCCCCCC(=O)OC(COC(=O)CCCCCCCCC)CO[C@@H]1O[C@H](CO)[C@@H](O)[C@H](O)[C@H]1O` (some centres not stated), the MIC is greater than 128 µg/mL.
Same read-out and setting: under `CCCCCCCC/C=C\CCCCCCCC(=O)OC(COC(=O)CCCCCCC)CO[C@@H]1O[C@H](CO)[C@H](O)[C@H](O)[C@H]1O` (some centres not stated) stands greater than 128 µg/mL.

The next test has as its system Bacillus subtilis. Kind of test: Antibacterial activity against Bacillus subtilis ATCC 6633. In kind it is functional. The note with it: Bacillus subtilis, ATCC 6633; read-out: MIC.
As for `CCCCCCCC/C=C\CCCCCCCC(=O)OC(COC(=O)CCCCCCCCC)CO[C@@H]1O[C@H](CO)[C@@H](O)[C@H](O)[C@H]1O` (some centres not stated), the MIC came out at 32 µg/mL (≈ 47.6 µM).
On the same count and under the same terms, next, `CCCCC/C=C\C/C=C\CCCCCCCC(=O)OC(COC(=O)CCCCCCCCC)CO[C@@H]1O[C@H](CO)[C@@H](O)[C@H](O)[C@H]1O` (some centres not stated): 128 µg/mL (≈ 191 µM); `CCCCCCCC/C=C\CCCCCCCC(=O)OC(COC(=O)CCCCCCC)CO[C@@H]1O[C@H](CO)[C@H](O)[C@H](O)[C@H]1O` (some centres not stated): 128 µg/mL (≈ 198 µM).

For another test, the system named is Staphylococcus aureus. Briefly: Antibacterial activity against Staphylococcus aureus SA52 isolate. In kind it is functional.
Conditions: not given
The compound `CCCCCCCC/C=C\CCCCCCCC(=O)OC(COC(=O)CCCCCCCCC)CO[C@@H]1O[C@H](CO)[C@@H](O)[C@H](O)[C@H]1O` (some centres not stated) had an MIC greater than 128 µg/mL.
On the same count and under the same terms, next, `CCCCC/C=C\C/C=C\CCCCCCCC(=O)OC(COC(=O)CCCCCCCCC)CO[C@@H]1O[C@H](CO)[C@@H](O)[C@H](O)[C@H]1O` (some centres not stated): greater than 128 µg/mL; `CCCCCCCC/C=C\CCCCCCCC(=O)OC(COC(=O)CCCCCCC)CO[C@@H]1O[C@H](CO)[C@H](O)[C@H](O)[C@H]1O` (some centres not stated): greater than 128 µg/mL.

For the next test, the system named is Mycobacterium tuberculosis. Kind of test: Antibacterial activity against Mycobacterium tuberculosis H160 by dilution method. In kind it is functional. The note with it: Mycobacterium tuberculosis, H160; read-out: MIC.
Regarding `CCCCCCCC/C=C\CCCCCCCC(=O)OC(COC(=O)CCCCCCCCC)CO[C@@H]1O[C@H](CO)[C@@H](O)[C@H](O)[C@H]1O` (some centres not stated), the MIC was greater than 128 µg/mL.
The same measure, in the same setting: next, `CCCCC/C=C\C/C=C\CCCCCCCC(=O)OC(COC(=O)CCCCCCCCC)CO[C@@H]1O[C@H](CO)[C@@H](O)[C@H](O)[C@H]1O` (some centres not stated): greater than 128 µg/mL; `CCCCCCCC/C=C\CCCCCCCC(=O)OC(COC(=O)CCCCCCC)CO[C@@H]1O[C@H](CO)[C@H](O)[C@H](O)[C@H]1O` (some centres not stated): 64 µg/mL (≈ 99.2 µM).

A further test deals with Escherichia coli. Briefly: Antibacterial activity against Escherichia coli ATCC 25922. In kind it is functional.
Conditions: not given
In turn, `CCCCCCCC/C=C\CCCCCCCC(=O)OC(COC(=O)CCCCCCCCC)CO[C@@H]1O[C@H](CO)[C@@H](O)[C@H](O)[C@H]1O` (some centres not stated) had a minimal inhibitory concentration (MIC) greater than 128 µg/mL.
Take `CCCCC/C=C\C/C=C\CCCCCCCC(=O)OC(COC(=O)CCCCCCCCC)CO[C@@H]1O[C@H](CO)[C@@H](O)[C@H](O)[C@H]1O` (some centres not stated): the MIC was greater than 128 µg/mL.
Consider `CCCCCCCC/C=C\CCCCCCCC(=O)OC(COC(=O)CCCCCCC)CO[C@@H]1O[C@H](CO)[C@H](O)[C@H](O)[C@H]1O` (some centres not stated), for which the MIC was greater than 128 µg/mL.

The test system of a further test is Staphylococcus aureus. Briefly: Antibacterial activity against Staphylococcus aureus SA85 isolate. In kind it is functional.
Conditions: not given
On to `CCCCCCCC/C=C\CCCCCCCC(=O)OC(COC(=O)CCCCCCCCC)CO[C@@H]1O[C@H](CO)[C@@H](O)[C@H](O)[C@H]1O` (some centres not stated), for which the lowest concentration to inhibit growth (MIC) was 128 µg/mL (≈ 190 µM).
In turn, `CCCCC/C=C\C/C=C\CCCCCCCC(=O)OC(COC(=O)CCCCCCCCC)CO[C@@H]1O[C@H](CO)[C@@H](O)[C@H](O)[C@H]1O` (some centres not stated) came in with an MIC of 32 µg/mL (≈ 47.7 µM).
In the case of `CCCCCCCC/C=C\CCCCCCCC(=O)OC(COC(=O)CCCCCCC)CO[C@@H]1O[C@H](CO)[C@H](O)[C@H](O)[C@H]1O` (some centres not stated), the MIC was greater than 128 µg/mL.
